Experimental data from article PMC6094398, “New tools for evaluating protein tyrosine sulfation: tyrosylprotein sulfotransferases (TPSTs) are novel targets for RAF protein kinase inhibitors” (Biochemical Journal, 2018).

Tests used:
[1] = target: T1, human TPST1 (Homo sapiens, UniProt O60507); assay: Differential scanning fluorimetry (thermal shift) assay with TPST1; format: binding; conditions: DSF, TPST1 5 µM, 10 µM rottlerin
T1 construct: human TPST1 (residues Lys43–Leu360) and TPST2 (residues Gly43–Leu359) enzymes lacking the transmembrane domains; made in house; host or cells: E. coli BL21 (DE3) pLysS
T1 sequence (O60507 43-360): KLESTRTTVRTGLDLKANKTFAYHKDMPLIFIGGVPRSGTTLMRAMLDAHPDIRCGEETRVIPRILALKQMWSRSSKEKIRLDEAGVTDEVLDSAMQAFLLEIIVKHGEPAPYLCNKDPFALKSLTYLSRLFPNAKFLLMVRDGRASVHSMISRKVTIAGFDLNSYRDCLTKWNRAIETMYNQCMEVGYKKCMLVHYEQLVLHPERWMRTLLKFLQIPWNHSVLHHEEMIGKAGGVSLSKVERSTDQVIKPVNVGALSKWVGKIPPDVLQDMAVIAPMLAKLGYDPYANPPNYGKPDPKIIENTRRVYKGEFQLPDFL

[2] = target: T2, human TPST2 (Homo sapiens, UniProt O60704); assay: Differential scanning fluorimetry (thermal shift) assay with TPST2; format: binding; conditions: DSF, TPST2 5 µM, 10 µM rottlerin
T2 construct: TPST2 (residues Gly43–Leu359) enzymes lacking the transmembrane domains; made in house; host or cells: E. coli BL21 (DE3) pLysS
T2 sequence (O60704 43-359): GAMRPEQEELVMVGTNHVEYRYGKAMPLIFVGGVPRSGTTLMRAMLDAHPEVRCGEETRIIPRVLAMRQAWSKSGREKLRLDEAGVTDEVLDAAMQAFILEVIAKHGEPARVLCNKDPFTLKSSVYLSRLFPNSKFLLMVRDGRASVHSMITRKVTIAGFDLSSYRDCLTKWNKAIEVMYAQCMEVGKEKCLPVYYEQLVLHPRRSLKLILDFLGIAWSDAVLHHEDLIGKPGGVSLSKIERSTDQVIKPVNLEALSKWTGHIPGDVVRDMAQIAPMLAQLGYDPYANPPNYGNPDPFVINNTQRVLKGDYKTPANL

[3] = target: T1, human TPST1; assay: EZ Reader II microfluidic mobility-shift CC4-tide sulfation assay, TPST1; format: biochemical; conditions: 10 µM PAPS
[4] = target: T2, human TPST2; assay: EZ Reader II microfluidic mobility-shift CC4-tide sulfation assay, TPST2; format: biochemical
[5] = target: T1, human TPST1; assay: GST-CC4-tide tyrosine sulfation by TPST1, immunoblotting with monoclonal sulfotyrosine antibody; format: biochemical; conditions: GST-CC4-tide 1 µg, 10 µM PAPS, increasing concentrations of inhibitor
Method: After the assay, proteins were denatured in Laemmli sample buffer, heated at 95°C for 5 min and then analysed by SDS–PAGE with 10% (v/v) polyacrylamide gels. Gels were stained and destained using a standard Coomassie Brilliant Blue protocol. To evaluate protein sulfation and phosphorylation by immunoblotting, standard western blotting procedures were followed using monoclonal anti-sulfotyrosine antibody clone Sulfo-1C-A2 (Millipore) generated using a phage display procedure and sulfotyrosine selection peptide antigens in the presence of appropriate positive and negative controls, and modifications visualised using the ECL reagent.

[6] = system: heparin sulfate 2-O sulfotransferase HS2ST; parameters: method as in PMID 29934491; conditions: cited from earlier work

CC(=O)c1c(O)c(C)c(O)c(Cc2c(O)c3c(c(C(=O)/C=C/c4ccccc4)c2O)OC(C)(C)C=C3)c1O [Rottlerin]
Thermal shift of TPST1 (in words) [1]: positive
Thermal shift of TPST2 (in words) [2]: positive
IC50 ([3]; TPST1 IC50 (rottlerin dose-response), Fig 6A, CC4-tide, normalised to 1% DMSO): 500 nM
IC50 ([3]; TPST1 IC50, previously described compounds, Fig 6C, CC4-tide, normalised to 1% DMSO): ~1000 nM
IC50 ([3]; TPST1 estimated IC50, RAF kinase inhibitors, Fig 8B, TPST1 0.1 µM pre-incubated with compound): 600 nM
IC50 [4]: 1140 nM
Inhibition of GST-CC4-tide tyrosine sulfation by TPST1 (immunoblot, in words) [5]: dose-dependent inhibition
HS2ST inhibition in vitro (in words) [6]: inhibitory activity
